{
  "source": "patent US5214034A",
  "about": "“Catechol derivatives, and preventive and remedial preparations for regressive disorders in the central nervous system containing the same” (priority 1986, dated 1993)",
  "key": {"Acute toxicity (LD50)": {"experiment": "Acute toxicity (LD50)", "conditions": "mouse, in vivo", "method": "The catechol derivative having normal type saturated lower alkyl groups on the ring was administered by intravenous injection (i.v.), intraperitoneal injection (i.p.) or oral route (p.o.) to male ddy mice of 4-week old. The LD50 values (mg/kg) were measured by an ordinary method."}, "[1]": {"tested_on": "rats injected with kainic acid at basal forebrain", "experiment": "Promotion of recovery from retention deficits by repeated learning (passive avoidance)", "format": "in vivo, rat (male Sprague-Dawley)", "set-up": "key: latency in seconds to enter dark chamber, capped at 300 s", "conditions": "Table 9, i.p. 5 mg/kg before each trial", "method": "(§1) Effects of the derivative on the behavioral parameters of rats injected with kainic acid at basal forebrain were characterized with regard to both prevention against deficits in retention of passive avoidance learning and promotion of recovery from damaged state by repeated learning.\n(§2) Male Sprague-Dawley rats (9-10 weeks of age, 200-250 g of weight) were anesthetized with Nembutal (50 mg/kg, i.p.) and placed in a stereotaxic apparatus. Bilateral lesions of the ventral globus pallidus were made by direct stereotaxic application (0.7 mm posterior to bregma, 2.7 mm lateral to the midline, and 7.0 mm ventral to the brain surface) of 0.25 μg of kainic acid in 1 μl of PBS (pH 7.4) to prepare disordered models. Controls were sham-operated rats injected with PBS in place of kainic acid solution.\n(§3) Passive avoidance procedures were performed by using a two chambered step-through passive avoidance apparatus with a guillotine door. A 3 mA scrambled shock was delivered to the dark floor grids for 3 seconds as a punishment. Habituation trial was conducted prior to the acquisition trial. Each rats were placed in the illuminated chamber and the guillotine door was raised after 10 seconds. As soon as the rats entered into the dark chamber, the door was lowered. The rats were removed after 10 seconds and returned to their home cages. […] The acquisition trial was performed similarly to the habituation trial. In the former case, a rat was placed in the illuminated room and the door was opened after 10 seconds. The door was shut immediately after the rat entered into the dark room, a scrambled foot shock was applied, and then the animal was removed. The latency to enter the dark chamber after opening the door was recorded for 300 seconds in the retention of passive avoidance. The latency exceeding 300 seconds was calculated as 300 seconds.\nThe promoting effects on the recovery by repeated training from the damaged state of retention were acessed by using 30 rats injected with kainic acid. Rats were subjected to the acquisition trial 10 days after the operation. The rats were equally divided into 3 groups after 24 hours and injected intrapenitroneally with 5 mg/kg of 4-n-propylcatechol and the derivative (A) (R=--CO--, R=H, R2 =n-propyl) respectively as a saline solution. The remaining 10 rats were intraperitoneally injected with saline alone. The first retention trial was carried out two days after the injection. Rats which entered into the dark chamber within 30 seconds were punished by the scrambled foot shock as a training. On the next day, all animals were administered again the same amount of test derivative or saline. These animals were subjected to the second retention trial two days after the second injection.\nRetention trials, punishments and additional administrations were repeated as mentioned above four times in all."}, "[2]": {"tested_on": "rats injected with kainic acid at basal forebrain / sham-operated rats", "experiment": "Retention of passive avoidance learning: prevention of retention deficits", "format": "in vivo, rat (male Sprague-Dawley)", "conditions": "Table 8, i.p. 5 mg/kg on days 1, 4, 7", "method": "as §1, §2, §3\nThe preventive effects on deficits in retention were estimated by using 60 rats. Thirty rats were injected with kainic acid and other 30 rats were sham-operated with PBS.\nEach groups of animals were equally divided into three groups which were received intraperitoneally 5 mg/kg of the derivative (A) (R=2H, R1 =H, R2 =n-propyl, that is, 4-n-propylcatechol), derivative A (R=--CO--, R1 =H, R2 =n-propyl) and saline respectively as a saline solution on one, four and seven days after the operation.\nTable 8 illustrates the results obtained by conducting the acquisition trial 10 days after the operation and the retention test after 24 hours."}, "[3]": {"tested_on": "production and secretion of NGF in brain astroglial cells", "experiment": "Promoting activity for the production and secretion of NGF in brain astroglial cells of mouse (ELISA)", "conditions": "24 h"}},
  "note": "Read-outs that look alike come from different tables or passages of the source.",
  "data": [
    {"smiles": "CCCc1ccc(O)c(O)c1", "note": "[R = Two H, R1 = H, R2 = n-Propyl, 4-n-propylcatechol]", "values": [
      {"measurement": "LD50", "setting": "Acute toxicity (LD50); ip, intraperitoneal injection, read-out: LD50 i.p.", "result": "> 500", "unit": "mg/kg"},
      {"measurement": "LD50", "setting": "Acute toxicity (LD50); intravenous injection, read-out: LD50 i.v.", "result": "> 150", "unit": "mg/kg"},
      {"measurement": "LD50", "setting": "Acute toxicity (LD50); oral route, read-out: LD50 p.o.", "result": "> 1500", "unit": "mg/kg"},
      {"measurement": "Mean latency, 1st retention trial", "setting": "[1]", "result": "47 ± 16"},
      {"measurement": "Mean latency, 4th retention trial", "setting": "[1]; **P < 0.01", "result": "272 ± 14"},
      {"measurement": "Mean latency, 2nd retention trial", "setting": "[1]; *P < 0.05", "result": "147 ± 29"},
      {"measurement": "Mean latency, 3rd retention trial", "setting": "[1]; *P < 0.05", "result": "201 ± 23"},
      {"measurement": "Animals with more than 150 sec of latency", "setting": "[2]; rats operated with kainic acid", "result": 3, "unit": "in 10 animals"},
      {"measurement": "Mean latency", "setting": "[2]; rats operated with kainic acid, *P < 0.01 vs control", "result": "114 ± 44", "unit": "s"},
      {"measurement": "Animals with more than 150 sec of latency", "setting": "[2]; sham-operated rats", "result": 10, "unit": "in 10 animals"},
      {"measurement": "Mean latency", "setting": "[2]; sham-operated rats", "result": "286 ± 9", "unit": "s"},
      {"measurement": "fold induction at 100 µM", "setting": "[3]; read-out: Ratio of NGF increase, Table 3, 0.10 mM, 24 hours, mean ± SE of four determinations", "result": "68.4 ± 3.24"},
      {"measurement": "fold induction at 250 µM", "setting": "[3]; read-out: Ratio of NGF increase, Table 3, 0.25 mM, 24 hours, mean ± SE of four determinations", "result": "100 ± 11.2"}
    ]}
  ]
}
